Assay results reported in patent US20260034094A1, “COMPOSITIONS AND METHODS FOR INDUCING FERROPTOSIS” (Kojin Therapeutics, Inc., priority 2022, published 2026).
Several values for one entry are separate records, joined by “and”; a condition that tells them apart may be missing. Identical values can stand only once. Like-named read-outs stand apart in the source and are kept apart here.

Assays:
[1] = test system: RKN cells; assay: RKN cell profiling assay (cell viability, CellTiter-Glo); assay type: cell-based; conditions: read-out: Cell Killing EC50
Summary of the method: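 Viability read by CellTiter-Glo luminescence after 96 h compound exposure (0.5% DMSO final) of cells plated at 1,000/well in 10% FBS F-12 and allowed 24 h attachment. Four-parameter fits gave EC50; rescue arms used ferrostatin-1, 1.5 μM, present from seeding.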

[2] = biological target: human recombinant GCL (Homo sapiens (Human), UniProt P48506); assay: GCL enzyme profiling assay (ADP-Glo luminescence); assay type: biochemical
Summary of the method: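 IC50 fitted by four-parameter logistic to luminescent ADP formation (ADP-Glo). Reaction at room temperature in HEPES pH 7.5 with 30 mM MgCl2, 0.2% F-127, 1% DMSO; 5 nM GCL and 0.6 mM ATP preincubated 1 h before adding 1 mM glutamate plus 1.2 mM α-aminobutyrate for 2 h.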

[3] = human recombinant GCL 5 nM, 1 h preincubation with ATP, read-out: GCL IC50
[4] = human recombinant GCL, ADP-Glo, read-out: GCL IC50

Chain of human recombinant GCL (P48506 whole entry): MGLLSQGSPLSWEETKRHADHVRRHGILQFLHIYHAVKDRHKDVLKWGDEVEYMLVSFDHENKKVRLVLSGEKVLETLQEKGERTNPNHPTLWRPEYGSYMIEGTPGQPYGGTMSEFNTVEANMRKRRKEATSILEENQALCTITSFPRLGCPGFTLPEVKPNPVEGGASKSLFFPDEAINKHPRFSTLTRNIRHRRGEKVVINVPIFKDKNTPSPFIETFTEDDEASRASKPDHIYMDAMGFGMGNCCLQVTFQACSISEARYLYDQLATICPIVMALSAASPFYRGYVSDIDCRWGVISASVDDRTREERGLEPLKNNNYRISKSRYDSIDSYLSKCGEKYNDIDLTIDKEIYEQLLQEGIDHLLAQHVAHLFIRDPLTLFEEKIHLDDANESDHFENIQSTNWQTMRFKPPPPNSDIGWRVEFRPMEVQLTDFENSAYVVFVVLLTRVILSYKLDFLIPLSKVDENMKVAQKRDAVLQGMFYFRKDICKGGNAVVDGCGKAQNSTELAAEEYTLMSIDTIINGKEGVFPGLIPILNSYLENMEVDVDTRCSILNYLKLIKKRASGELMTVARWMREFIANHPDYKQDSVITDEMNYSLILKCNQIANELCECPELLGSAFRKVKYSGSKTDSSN

Structure (SMILES) | IC50 [2, 3] | IC50 ([2]; human recombinant GCL 5 nM, 1 h preincubation with ATP, read-out: GCL IC50 (mM), individual values in parentheses) | IC50 [2, 4] [mM] | EC50 ([1]; 96 h, 96 h exposure) [µM] | EC50 ([1]; cell viability) [µM]
CNC(=O)C1(CCS(=N)(=O)CC[C@H](N)C(=O)O)CCC1 (stereo partly drawn) [Compound 192] | 0.02 to 2 mM |  |  | ≥ 1000 | 
CN(C)C(=O)C1(CCS(=N)(=O)CC[C@H](N)C(=O)O)CCC1 (stereo partly drawn) [Compound 193] | 0.02 to 2 mM |  |  | ≥ 1000 | 
N=S(=O)(CC[C@H](N)C(=O)O)CCC1(C(=O)N2CCCC2)CCC1 (stereo partly drawn) [Compound 194] | 0.02 to 2 mM |  |  | ≥ 1000 | 
N=S(=O)(CC[C@H](N)C(=O)O)CCC1(C(=O)N2CCC2)CCC1 (stereo partly drawn) [Compound 196] | 0.02 to 2 mM |  |  | ≥ 1000 | 
CCCCS(=O)(CC[C@H](N)C(=O)OC)=NC(C)=O (stereo partly drawn) [Compound 197, (2S)-methyl 4-(N-acetylbutylsulfonimidoyl)-2-aminobutanoate] | > 2 mM |  |  | ≥ 1000 | 
CCCCS(=N)(=O)CC[C@H](NC(=O)OC)C(=O)OC (stereo partly drawn) [Compound 198, (2S)-methyl 4-(butylsulfonimidoyl)-2-((methoxycarbonyl)amino)butanoate] | > 2 mM |  |  | ≥ 1000 | 
CCCCS(=N)(=O)CC[C@H](N)C#N (stereo partly drawn) [Compound 199, (2S)-2-amino-4-(butylsulfonimidoyl)butanenitrile] | > 2 mM |  |  | ≥ 1000 | 
CC(C)(C)CCS1(=O)=NC(=O)[C@@H](N)CC1 (stereo partly drawn) [Compound 201, (1S,4R)-4-amino-1-(3,3-dimethylbutyl)-5,6-dihydro-1,2-thiazin-3 (4H)-one 1-oxide] | 0.02 to 2 mM |  |  | < 1000 | 
N[C@H]1CCS(=O)(CCCC(F)(F)F)=NC1=O (stereo partly drawn) [Compound 202, (1S,4R)-4-amino-1-(4,4,4-trifluorobutyl)-5,6-dihydro-1,2-thiazin-3 (4H)-one 1-oxide] | 0.02 to 2 mM |  |  | < 1000 | 
N=S(=O)(CCCC(F)(F)F)CC[C@H](N)c1ncon1 (stereo partly drawn) [Compound 203, (1S)-1-(1,2,4-oxadiazol-3-yl)-3-(4,4,4-trifluorobutylsulfonimidoyl)propan-1-amine] | > 2 mM |  |  | ≥ 1000 | 
N=S(=O)(CCCC(F)(F)F)CC[C@H](N)c1ncno1 (stereo partly drawn) [Compound 204, (1S)-1-(1,2,4-oxadiazol-5-yl)-3-(4,4,4-trifluorobutylsulfonimidoyl)propan-1-amine] | > 2 mM |  |  | ≥ 1000 | 
N=S(=O)(CCCC(F)(F)F)CC[C@H](N)c1ncn[nH]1 (stereo partly drawn) [Compound 205, (1S)-1-(1H-1,2,4-triazol-5-yl)-3-(4,4,4-trifluorobutylsulfonimidoyl)propan-1-amine] | ≤ 0.02 mM and 0.02 to 2 mM |  |  | ≥ 1000 | 
N=S(=O)(CC[C@H](N)C(=O)O)CCC1(NC(N)=O)CCC1 (stereo partly drawn) [Compound 206, (2S)-2-amino-4-(2-(1-ureidocyclobutyl)ethylsulfonimidoyl)butanoic acid] | 0.02 to 2 mM |  |  | < 1000 | 
N=S(=O)(CCC(N)C(F)(F)F)CC[C@H](N)C(=O)O (stereo partly drawn) [Compound 210, (2S)-2-amino-4-(3-amino-4,4,4-trifluorobutylsulfonimidoyl)butanoic acid] | 0.02 to 2 mM |  |  | < 1000 | 
N#CC1CC=C(c2ccc(C(CCS(=N)(=O)CC[C@H](N)C(=O)O)C(F)(F)F)cc2)CC1 (stereo partly drawn) [Compound 214, (2S)-2-amino-4-(3-(4′-cyano-2′,3′,4′,5′-tetrahydro-[1,1′-biphenyl]-4-yl)-4,4,4-trifluorobutylsulfonimidoyl)butanoic acid] |  |  | ≤ 0.02 |  | ≥ 1000
N=S(=O)(CCC(c1ccc(-c2cc(F)cc(F)c2)cc1)C(F)(F)F)CC[C@H](N)C(=O)O (stereo partly drawn) [Compound 222] |  |  | ≤ 0.02 |  | < 1000
N=S(=O)(CCC(c1ccc(-c2cc(F)ccc2O)cc1)C(F)(F)F)CC[C@H](N)C(=O)O (stereo partly drawn) [Compound 232] |  |  | ≤ 0.02 |  | < 1000
N=S(=O)(CCC(c1ccc(-c2ccc(OC(F)(F)F)cc2)cc1)C(F)(F)F)CC[C@H](N)C(=O)O (stereo partly drawn) [Compound 233] |  |  | ≤ 0.02 |  | < 1000
N=S(=O)(CCC(c1ccc(-c2cc(Cl)cc(Cl)c2)cc1)C(F)(F)F)CC[C@H](N)C(=O)O (stereo partly drawn) [Compound 234] |  |  | ≤ 0.02 |  | ≥ 1000
COc1ccc(Cl)cc1-c1ccc(C(CCS(=N)(=O)CC[C@H](N)C(=O)O)C(F)(F)F)cc1 (stereo partly drawn) [Compound 236] |  |  | ≤ 0.02 |  | < 1000
N=S(=O)(CCC(c1ccc(-c2ccc(Cl)c(C(F)(F)F)c2)cc1)C(F)(F)F)CC[C@H](N)C(=O)O (stereo partly drawn) [Compound 237] |  |  | ≤ 0.02 |  | < 1000
N=S(=O)(CCC(c1ccc(-c2cc(F)ccc2Cl)cc1)C(F)(F)F)CC[C@H](N)C(=O)O (stereo partly drawn) [Compound 238] |  |  | ≤ 0.02 |  | < 1000
N#Cc1cccc(-c2ccc(C(CCS(=N)(=O)CC[C@H](N)C(=O)O)C(F)(F)F)cc2)c1F (stereo partly drawn) [Compound 240] |  |  | ≤ 0.02 |  | ≥ 1000

Continued, in another order:

IC50 [2, 3] | IC50 ([2]; human recombinant GCL 5 nM, 1 h preincubation with ATP, read-out: GCL IC50 (mM), individual values in parentheses) | IC50 [2, 4] [mM] | Structure (SMILES) | EC50 ([1]; 96 h, 96 h exposure) [µM] | EC50 ([1]; cell viability) [µM]
0.02 to 2 mM |  |  | CC(C)(CCS(=N)(=O)CC[C@H](N)C(=O)O)C(N)=O (stereo partly drawn) [Compound 190] | ≥ 1000 | 
0.02 to 2 mM |  |  | N=S(=O)(CC[C@H](N)C(=O)O)CCC1(C(=O)Nc2ccccc2)CCC1 (stereo partly drawn) [Compound 195] | ≥ 1000 | 
0.02 to 2 mM |  |  | CC(C)(CCS(=N)(=O)CC[C@H](N)C(=O)O)n1cc(-c2ccccc2)nn1 (stereo partly drawn) [Compound 207, (2S)-2-amino-4-(3-methyl-3-(4-phenyl-1H-1,2,3-triazol-1-yl)butylsulfonimidoyl)butanoic acid] | ≥ 1000 | 
≤ 0.02 mM and 0.02 to 2 mM | 0.0204 mM and 0.02 mM |  | CC(C)(CCS(=N)(=O)CC[C@H](N)C(=O)O)n1ncc(-c2ccccc2)n1 (stereo partly drawn) [Compound 208, (2S)-2-amino-4-(3-methyl-3-(4-phenyl-2H-1,2,3-triazol-2-yl)butylsulfonimidoyl)butanoic acid] | < 1000 | 
≤ 0.02 mM |  |  | N=S(=O)(CC[C@H](N)C(=O)O)CCC(O)(c1ccccc1Cl)C(F)(F)F (stereo partly drawn) [Compound 209, (2S)-2-amino-4-(3-(2-chlorophenyl)-4,4,4-trifluoro-3-hydroxybutylsulfonimidoyl)butanoic acid] | < 1000 | 
≤ 0.02 mM |  |  | N=S(=O)(CCC(c1ccc(-c2ccccc2)cc1)C(F)(F)F)CC[C@H](N)C(=O)O (stereo partly drawn) [Compound 211, (2S)-4-(3-([1,1′-biphenyl]-4-yl)-4,4,4-trifluorobutylsulfonimidoyl)-2-aminobutanoic acid] | < 1000 | 
≤ 0.02 mM |  |  | N=S(=O)(CCC(c1ccc(-c2ccccc2Cl)cc1)C(F)(F)F)CC[C@H](N)C(=O)O (stereo partly drawn) [Compound 212, (2S)-2-amino-4-(3-(2′-chloro-[1,1′-biphenyl]-4-yl)-4,4,4-trifluorobutylsulfonimidoyl)butanoic acid] | < 1000 | 
 |  | ≤ 0.02 | N=S(=O)(CCC(c1ccc(CCC(F)(F)F)cc1)C(F)(F)F)CC[C@H](N)C(=O)O (stereo partly drawn) [Compound 213, (2S)-2-amino-4-(4,4,4-trifluoro-3-(4-(3,3,3-trifluoropropyl)phenyl)butylsulfonimidoyl)butanoic acid] |  | ≥ 1000
 |  | ≤ 0.02 | N=S(=O)(CCC(c1ccc(C#Cc2ccccc2)cc1)C(F)(F)F)CC[C@H](N)C(=O)O (stereo partly drawn) [Compound 215, (2S)-2-amino-4-(4,4,4-trifluoro-3-(4-(phenylethynyl)phenyl)butylsulfonimidoyl)butanoic acid] |  | < 1000
 |  | 0.02 to 2 | N=S(=O)(CCC(c1ccc(S(=O)(=O)c2ccccc2)cc1)C(F)(F)F)CC[C@H](N)C(=O)O (stereo partly drawn) [Compound 216, (2S)-2-amino-4-(4,4,4-trifluoro-3-(4-(phenylsulfonyl)phenyl)butylsulfonimidoyl) butanoic acid] |  | ≥ 1000
 |  | ≤ 0.02 | CCCc1ccc(C(CCS(=N)(=O)CC[C@H](N)C(=O)O)C(F)(F)F)cc1 (stereo partly drawn) [Compound 223] |  | < 1000
 |  | ≤ 0.02 | CCCCc1ccc(C(CCS(=N)(=O)CC[C@H](N)C(=O)O)C(F)(F)F)cc1 (stereo partly drawn) [Compound 224] |  | < 1000
 |  | ≤ 0.02 | N=S(=O)(CCC(c1ccc(-c2cccc(N)c2)cc1)C(F)(F)F)CC[C@H](N)C(=O)O (stereo partly drawn) [Compound 239] |  | ≥ 1000
 |  | ≤ 0.02 | COc1cncc(-c2ccc(C(CCS(=N)(=O)CC[C@H](N)C(=O)O)C(F)(F)F)cc2)c1 (stereo partly drawn) [Compound 242] |  | ≥ 1000
 |  | ≤ 0.02 | N#Cc1ccc(-c2ccc(C(CCS(=N)(=O)CC[C@H](N)C(=O)O)C(F)(F)F)cc2)cn1 (stereo partly drawn) [Compound 244] |  | ≥ 1000
 |  | ≤ 0.02 | N=S(=O)(CCC(c1ccc(-c2cncc(F)c2)cc1)C(F)(F)F)CC[C@H](N)C(=O)O (stereo partly drawn) [Compound 247] |  | ≥ 1000
 |  | ≤ 0.02 | N=S(=O)(CCC(c1ccc(-c2cncc(C(F)(F)F)c2)cc1)C(F)(F)F)CC[C@H](N)C(=O)O (stereo partly drawn) [Compound 250] |  | ≥ 1000
